# Source: patent publication US20070166547A1, “Use of a layer consisting of hydrophobic linear, or two-dimensional polycyclic aromatics as a barrier layer or an encapsulation and electric components constructed with a layer of this type and comprising organic polymers” (priority 2003, published 2007)
# Columns and labels:
# [1] = test system: aggregation of thrombocytes; experiment: ADP-induced aggregation of thrombocytes after intravenous administration (in vivo); set-up: species or system rabbit
# Procedure: The experiments were carried out on male rabbits of the “Chinchilla” breed having a mass of 2.7±0.3 kg. 18-24 hours prior to the experiment they were deprived of feed while preserving free access to water.
# To obtain plasma enriched with thrombocytes, blood was taken from a cut of a marginal vein of the rabbit ear, the sample was stabilized with 3.8% of sodium citrate solution in a ratio of 9:1 and centrifuged at 200 g (1000 rev/min) for 10 minutes. The top supernatant layer enriched with thrombocytes was transferred by an automatic dropper into a silicone test tube and kept at 37° C. The plasma enriched with thrombocytes contained, on the average, […]. If this content exceeded the specified 3×10^8 blood platelets in 1 liter, this sample was diluted to the necessary concentration with plasma deprived of thrombocytes, which was obtained by centrifuging blood at 650 g during 10 minutes.
# The measurements of the optical density of the samples were made on two-channel aggregometer of the “Chronolog” Company (USA). A flask containing 490 mkl of plasma rich with thrombocytes was placed in a device, into which a magnetic agitator covered with Teflon was lowered. The index of maximum amplitude of aggregation (MA) in percent of a fall of the plasma optical density under effect of the aggregation inductor was recorded. The control index MA of plasma was compared with the MA of plasma incubated for 3 minutes with different concentrations of the compounds: from 10^−3 to 10^−7 in vitro experiments or with plasma obtained 15, 30, 60 and 120 minutes after intravenous administration of different doses of the compounds in vivo experiments.
# The process of aggregation of thrombocytes was recorded with the help of a computer; on the monitor screen the there were depicted curves reflecting changes of the optical density of the plasma enriched which was taken as a standard 100% compared to the optical density of the non-thrombocyte plasma taken for 0% content of thrombocytes.
# The antiaggregative capability of compounds 2, 15, 21, 37, according to the invention was tested in experiments in vivo. Introduced to the test animals intravenously were an aggregation inductor ADP at a concentration of 10^−5 M was and then the compounds according to the invention. The doses of the compounds were in a range from 15 to 60 mg/kg.
# For leveling the different effects of the compounds in different days due the ambient temperature, humidity and other parameters, 2 animals of each series were taken for experiments every day. Under “series” there is understood a group of 6 animals used for studying one of the doses of the compounds.
# The blood for obtaining plasma enriched with thrombocytes was taken from marginal vein of the rabbit ear: in the control group—directly before introducing the tested compounds; in investigated groups—15 minutes after introducing these compounds and then after 30, 60, 120 minutes and so on up to the moment when the effect of suppression of aggregation disappeared.
# The quantity of thrombocytes was counted before the experiment and at the end thereof in each plasma sample.
# [2] = test system: adenosine-sensitive receptors of erythrocytes; experiment: Chemiluminescence study of bonding to erythrocytes and competition with adenosine; format: binding, mice of line BALB/c; conditions: 37° C. vs 4° C.; 10^−7 to 10^−5 M
# Procedure: The interaction of compounds 2, 15, 21, 37 according to the invention with adenosine-sensitive receptors of erythrocytes of female mice of line BALB/c of an age of 8-12 months was investigated.
# The dependence of the chemiluminescence intensity of the compounds according to the invention in an alkaline solution of 0.1N NaOH was determined in the presence of hydrogen peroxide being an initiator of chemiluminescence. The chemiluminescence was studied using the <<LKB>> chemiluminometer.
# The erythrocytes of peripheral blood of the mice at first were washed three times by a normal physiological solution with centrifuging and then diluted in the Henks solution without glucose by 10 volumes of distilled water immediately used in the experiment.
# At the first stage of the experiments the washed erythrocytes were incubated at a temperature of 37° C. or at 4° C. with solutions of the compounds according to the invention at a concentration of 10^−7 to 10^−5 M for 5-30 minutes, then washed by a normal physiological solution with repeated centrifuging in the cold. The obtained suspension of erythrocytes with the bound compounds according to the invention was placed in 0.1N solution of NaOH with addition of hydrogen peroxide at a final concentration of 10^−7 M. The chemiluminescence intensity was measured. A suspension of erythrocytes without compounds according to the invention was used as a control medium.
# At the second stage of the experiments the washed erythrocytes were incubated at a temperature of 37° C. with solutions of the compounds according to the invention at a concentration of 10^−11 to 10^−8M during
# 5-30 minutes, then washed twice with a normal physiological solution by centrifuging in the cold, the obtained suspension was mixed with an adenosine solution at a concentration of 10^−6 to 10^−4 and incubated for 15 minutes, then washed twice with a normal physiological solution with centrifuging in the cold. The obtained suspension of erythrocytes with the compounds according to the invention was placed in 0.1N solution of NaOH with addition of hydrogen peroxide in the final concentration of 10^−7 M. The chemiluminescence intensity was measured.
SMILES,"MA, %, After 15 minutes ([1]; dose 15.0 mg/kg intravenously) [%]","MA, %, After 30 minutes ([1]; dose 15.0 mg/kg intravenously) [%]","MA, %, After 60 minutes ([1]; dose 15.0 mg/kg intravenously) [%]","MA, %, After 120 minutes ([1]; dose 15.0 mg/kg intravenously) [%]","MA, %, After 15 minutes ([1]; dose 30.0 mg/kg intravenously) [%]","MA, %, After 30 minutes ([1]; dose 30.0 mg/kg intravenously) [%]","MA, %, After 60 minutes ([1]; dose 30.0 mg/kg intravenously) [%]","MA, %, After 120 minutes ([1]; dose 30.0 mg/kg intravenously) [%]","MA, %, After 15 minutes ([1]; dose 60.0 mg/kg intravenously) [%]","MA, %, After 30 minutes ([1]; dose 60.0 mg/kg intravenously) [%]","MA, %, After 60 minutes ([1]; dose 60.0 mg/kg intravenously) [%]","MA, %, After 120 minutes ([1]; dose 60.0 mg/kg intravenously) [%]",bond with the erythrocytes: dependence on incubation temperature [2]
"Nc1ccnc2c(=O)n([C@@H]3O[C@H](CO)[C@@H](O)[C@H]3O)[nH]c(=O)c12 [Compound 2, 4-amino-7-(β-D-ribofuranosile)pyrido[2,3-d]-6H-pyridazine-5,8-dione]",44.2 ± 2.0,42.2 ± 1.6,46.9 ± 1.7,49.2 ± 2.0,45.3 ± 2.0,43.7 ± 1.7,40.1 ± 2.2,59.7 ± 2.2,45.2 ± 1.2,43.6 ± 2.0,47.8 ± 1.5,48.0 ± 1.2,does not depend on the temperature
"Nc1cccc2c(=O)[nH][nH]c(=O)c12.[Na] [Compound 15, sodium salt of 5-amino-benzo[d]-3H-pyridazine-1,4-dione]",42.8 ± 1.8,41.8 ± 1.5,45.6 ± 1.5,48.3 ± 2.3,43.2 ± 2.2,41.8 ± 1.9,37.8 ± 1.8,58.1 ± 1.7,43.1 ± 1.5,41.3 ± 1.5,44.7 ± 0.8,47.2 ± 1.6,does not depend on the temperature
"Nc1cnc2c(=O)n([C@@H]3O[C@H](CO)[C@@H](O)[C@H]3O)[nH]c(=O)c2n1.[Na] [Compound 21, sodium salt of 3-amino-7-(β-D-ribofuranosile)pyrazine[2,3-d]-6H-pyridazine-5,8-dione]",43.5 ± 1.7,43.3 ± 1.7,46.7 ± 1.5,49.1 ± 1.7,46.7 ± 1.9,45.4 ± 1.8,45.0 ± 1.9,60.3 ± 2.1,45.1 ± 0.9,43.2 ± 2.0,47.3 ± 1.6,48.3 ± 1.5,does not depend on the temperature
"O=c1[nH][nH]c(=O)c2c(Br)ncnc12.[K] [Compound 37, potassium salt of 4-bromine-pyrimido[4,5-D]-6H-pyridazine-5,8-dione]",42.9 ± 1.6,41.9 ± 1.6,45.9 ± 1.6,48.7 ± 2.1,43.5 ± 2.0,42.0 ± 1.4,41.6 ± 1.4,58.4 ± 1.7,43.4 ± 1.8,42.4 ± 0.7,46.2 ± 2.0,47.3 ± 1.7,does not depend on the temperature
